Reference: patent US20110136776A1, “Copper(1)Chloride Complex of Nicotinic Acid and Pharmaceutical Compositions Containing the Same” (priority 2008, published 2011)

Test system: fatigue
Conditions: all types of fatigue: unexplained fatigue, chronic fatigue syndrome, fibromyalgia

[CuCl (Nicotinic acid)2 H20]complex [The complex]
Effect in chronic fatigue (muscle pain, physical activity, productivity, depression): relieved the muscle pain, increased the physical activity and productivity
